Key:
[1] = system: LoVo cells; experiment: LoVo Cell Growth Inhibition Test (MTT Assay); format: cell-based; conditions: Homo sapiens, 72 h incubation
Method: LoVo Cell Growth Inhibition Test (MTT Assay)
1. Cell strains: LoVo (human intestinal cancer cell strains);
(§1) 1. A plate (10 cm) of cells in logarithmic growth phase normally cultured was collected;
2. The culture solution was sucked out. The plate was washed with 5 ml of PBS 1-2 times;
3. PBS was sucked out. 2 ml of 0.25% pancreatin was added to infiltrate the cells for 1 min;
4. The pancreatin was sucked out. The culture plate was placed in an incubator. Digestion was carried out for about 4 min at 37° C.;
5. 4 ml of complete culture solution was added in the culture plate to stop the digestion. The cells were carefully scoured with micropipette (1 ml) to give a uniform cell suspension. The suspension was implanted into a 96-well cell culture plate by 3000-4000 cells/100 μl per well. The culture plate was incubated overnight under 5% CO2 at 37° C. In day 2, 100 μl of culture solution comprising a compound was added into each well, and further incubated for 72 h under 5% CO2 at 37° C.
(§2) 6. The culture solution was sucked out;
7. 100 μl of serum-free culture solution containing 0.5 mg/ml MTT was added in each well, and incubated for 4 h;
(§3) 8. The culture solution was carefully sucked out;
9. 100 μl of DMSO was added in each well and vibrated to dissolve;
(§4) 10. OD values were determined at 490 nM.
1. Calculation of Relative Inhibition Ratio The inhibition ratio of a compound on cell growth=(PC−n)/(PC−NC)×100%
(§5) IC50: Concentration of a compound where inhibition ratio was 50%. IC50 values were fitted with Origin7.5.

[2] = system: BT-474 cells; experiment: BT-474 Cell Growth Inhibition Test (SRB Assay); format: cell-based, human; conditions: 70 h incubation; for IC50 / inhibition at 1 µM: Homo sapiens; for inhibition at 1 µM: BT-474, 70 h, read-out: Growth Inhibition Ratio (%); for inhibition at 1 µM / Growth Inhibition Ratio (%): compound 1 μM
Summary of the method: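 Human breast tumour BT-474 cells (1×10^5/ml seeding, overnight) exposed to compound 70 h at 37 °C, 5% CO2; TCA-fixed, SRB-stained, dye dissolved in 10 mM Tris and OD read at 570 nm. Inhibition ratio = (PC−n)/(PC−NC)×100%; IC50 is the concentration giving 50% inhibition, from fitted curves.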

[3] = system: A549 cells; experiment: A549 Cell Growth Inhibition Test (MTT Assay); format: cell-based; conditions: Homo sapiens, 72 h incubation
Summary of the method: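 Human lung cancer A549 cells, seeded at 2500 cells per well, were exposed to compound for 72 h at 37° C., 5% CO2. Viability by MTT (0.5 mg/ml, 3 h), DMSO-dissolved, OD at 490 nm; IC50 fitted from inhibition ratio relative to controls.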

[4] = system: NCI-N87 cells; experiment: NCI-N87 Cell Growth Inhibition Test (MTT Assay); format: cell-based; conditions: Homo sapiens, 72 h incubation
Method: NCI-N87 Cell Growth Inhibition Test (MTT Assay)
1. Cell strains: NCI-N87 (human gastric carcinoma cell strains);
as §1
2. The culture solution was sucked out. The plate was washed wtih 5 ml of PBS 1-2 times;
3. PBS was sucked out. 1.5 ml of 0.25% pancreatin was added to infiltrate the cells for 1 min;
4. The pancreatin was sucked out. The culture plate was placed in an incubator. Digestion was carried out for about 12 min at 37° C.;
5. 4.5 ml of complete culture solution was added to the culture plate to stop the digestion. The cells were carefully scoured with micropipette (1 ml) to give a uniform cell suspension. The suspension was implanted into a 96-well cell culture disc by 17000 cells/100 μl per well. The culture plate was incubated overnight under 5% CO2 at 37° C. In day 2, 100 μl of culture solution comprising a compound was added in each well, and further incubated for 72 h under 5% CO2 at 37° C.
as §2
7. 100 μl of serum-free culture solution containing 0.5 mg/ml MTT was added in each well, and incubated for 3 h;
as §3
9. 100 μl of DMSO was added in each welland vibrated to dissolve;
as §4
1. Calculation of Rrelative Inhibition Ratio The inhibition ratio of a compound on cell growth=(PC−n)/(PC−NC)×100%
as §5

**Q.** Which results are given for `Cc1ccccc1COc1ccc(Nc2c(C#N)cnc3cc(OC4CCOC4)c(NC(=O)/C=C/CN(C)C)cc23)cc1Cl` (stereo not shown) [Example 17, (E)-N-(4-(4-(2-METHYLBENZYLOXY)-3-CHLOROPHENYLAMINO)-3-CYANO-7-(TETRAHYDROFURAN-3-YL-OXY)QUINOLIN-6-YL)-4-(DIMETHYLAMINO)-BUT-2-ENAMIDE]?
**A.** IC50 [1]: 2000 nM; IC50 [2]: 17 nM; IC50 [3]: 2400 nM; IC50 [4]: 21 nM

**Q.** Which results are given for `CN(C)C/C=C/C(=O)Nc1cc2c(Nc3ccc(OCc4ccccc4F)c(Cl)c3)c(C#N)cnc2cc1OC1CCOC1` (stereo not shown) [Example 8, (E)-N-(4-(4-(2-FLUOROBENZYLOXY)-3-CHLOROPHENYLAMINO)-3-CYANO-7-(TETRAHYDROFURAN-3-YL-OXY)QUINOLIN-6-YL)-4-(DIMETHYLAMINO)-BUT-2-ENAMIDE]?
**A.** IC50 [1]: 1700 nM; inhibition at 1 µM [2]: 79%; IC50 [3]: 1700 nM; IC50 [4]: 5.6 nM

**Q.** `CN(C)C/C=C/C(=O)Nc1cc2c(Nc3ccc(OCc4ccccn4)c(Cl)c3)c(C#N)cnc2cc1O[C@@H]1CCOC1` [Example 139, (R,E)-N-(4-(3-CHLORO-4-(PYRIDIN-2-YL-METHOXY)PHENYLAMINO)-3-CYANO-7-(TETRAHYDROFURAN-3-YL-OXY)QUINOLIN-6-YL)-4-(DIMETHYLAMINO)-BUT-2-ENAMIDE] was tested. Which IC50 [1] did it give?
**A.** 2200 nM

**Q.** What about the IC50 [2] of the same compound?
**A.** 3.9 nM

**Q.** And the inhibition at 1 µM [2]?
**A.** 81%

**Q.** And the IC50 [3]?
**A.** 600 nM

**Q.** What about the IC50 [4] of the same compound?
**A.** 7.2 nM

**Q.** How did the IC50 [1] turn out when `CN(C)C/C=C/C(=O)Nc1cc2c(Nc3ccc(OCc4ccccn4)c(Cl)c3)c(C#N)cnc2cc1O[C@H]1CCOC1` [Example 138, (S,E)-N-(4-(3-CHLORO-4-(PYRIDIN-2-YL-METHOXY)PHENYLAMINO)-3-CYANO-7-(TETRAHYDROFURAN-3-YL-OXY)QUINOLIN-6-YL)-4-(DIMETHYLAMINO)-BUT-2-ENAMIDE] was run?
**A.** 2100 nM

**Q.** What about the IC50 [2] of the same compound?
**A.** 3 nM

**Q.** What about the inhibition at 1 µM [2] of the same compound?
**A.** 82%

**Q.** What about the IC50 [3] of the same compound?
**A.** 1500 nM

**Q.** What about the IC50 [4] of the same compound?
**A.** 4.4 nM

**Q.** `CC(C)(C)NC/C=C/C(=O)Nc1cc2c(Nc3ccc(OCc4ccccn4)c(Cl)c3)c(C#N)cnc2cc1O[C@H]1CCOC1` [Example 153, (S,E)-N-(4-(3-CHLORO-4-(PYRIDIN-2-YL-METHOXY)PHENYLAMINO)-3-CYANO-7-(TETRAHYDROFURAN-3-YL-OXY)QUINOLIN-6-YL)-4-(TERT-BUTYLAMINO)-BUT-2-ENAMIDE] was tested. Which IC50 [1] did it give?
**A.** 5600 nM

**Q.** And the IC50 [2]?
**A.** 7.2 nM

**Q.** And the IC50 [3]?
**A.** 6400 nM

**Q.** And the IC50 [4]?
**A.** 15 nM

**Q.** What does the source list for `CN(C)C/C=C/C(=O)Nc1cc2c(Nc3cccc(Br)c3)c(C#N)cnc2cc1OC1CCOC1` (stereo not shown) [Example 7, (E)-N-(4-(3-BROMOPHENYLAMINO)-3-CYANO-7-(TETRAHYDROFURAN-3-YL-OXY)QUINOLIN-6-YL)-4-(DIMETHYLAMINO)-BUT-2-ENAMIDE]?
**A.** IC50 [1]: 7000 nM; IC50 [2]: 309 nM; IC50 [3]: 3000 nM; IC50 [4]: 113 nM

**Q.** What does the source list for `CN(C)C/C=C/C(=O)Nc1cc2c(Nc3ccc(OCc4ccccc4Cl)c(Cl)c3)c(C#N)cnc2cc1OC1CCOC1` (stereo not shown) [Example 10, (E)-N-(4-(4-(2-CHLOROBENZYLOXY)-3-CHLOROPHENYLAMINO)-3-CYANO-7-(TETRAHYDROFURAN-3-YL-OXY)QUINOLIN-6-YL)-4-(DIMETHYLAMINO)-BUT-2-ENAMIDE]?
**A.** IC50 [1]: 2000 nM; IC50 [2]: 9.9 nM; IC50 [3]: 2300 nM; IC50 [4]: 11 nM

**Q.** Which IC50 [1] does the source give for `CN(C)C/C=C/C(=O)Nc1cc2c(Nc3ccc(OCc4ccc(Cl)cc4)c(Cl)c3)c(C#N)cnc2cc1OC1CCOC1` (stereo not shown) [Example 16, (E)-N-(4-(4-(4-CHLOROBENZYLOXY)-3-CHLOROPHENYLAMINO)-3-CYANO-7-(TETRAHYDROFURAN-3-YL-OXY)QUINOLIN-6-YL)-4-(DIMETHYLAMINO)-BUT-2-ENAMIDE] here?
**A.** 1800 nM

**Q.** What about the IC50 [2] of the same compound?
**A.** 35 nM

**Q.** What about the inhibition at 1 µM [2] of the same compound?
**A.** 72%

**Q.** And the IC50 [3]?
**A.** 3400 nM

**Q.** What about the IC50 [4] of the same compound?
**A.** 26 nM

**Q.** With `C#Cc1cccc(Nc2c(C#N)cnc3cc(O[C@H]4CCOC4)c(NC(=O)/C=C/CN(CC)CC)cc23)c1` [Example 143, (S,E)-N-(3-CYANO-4-(3-ETHYNYLPHENYLAMINO)-7-(TETRAHYDROFURAN-3-YL-OXY)QUINOLIN-6-YL)-4-(DIETHYLAMINO)-BUT-2-ENAMIDE] as the compound, how does the IC50 [1] read?
**A.** 7500 nM

**Q.** And the IC50 [2]?
**A.** 149 nM

**Q.** And the inhibition at 1 µM [2]?
**A.** 87%

**Q.** And the IC50 [3]?
**A.** 1500 nM

**Q.** And the IC50 [4]?
**A.** 89 nM

**Q.** For `CN(C)C/C=C/C(=O)Nc1cc2c(Nc3ccc(OCc4cccc(F)c4)c(Cl)c3)c(C#N)cnc2cc1OC1CCOC1` (stereo not shown) [Example 9, (E)-N-(4-(4-(3-FLUOROBENZYLOXY)-3-CHLOROPHENYLAMINO)-3-CYANO-7-(TETRAHYDROFURAN-3-YL-OXY)QUINOLIN-6-YL)-4-(DIMETHYLAMINO)-BUT-2-ENAMIDE], which IC50 [1] is on record?
**A.** 1580 nM

**Q.** And the IC50 [2]?
**A.** 5.2 nM

**Q.** And the “Growth Inhibition Ratio (%)” value [2]?
**A.** 78%

**Q.** What about the IC50 [3] of the same compound?
**A.** 1700 nM

**Q.** What about the IC50 [4] of the same compound?
**A.** 8.6 nM

**Q.** With `CCN(CC)C/C=C/C(=O)Nc1cc2c(Nc3ccc(OCc4ccccn4)c(Cl)c3)c(C#N)cnc2cc1O[C@H]1CCOC1` [Example 150, (S,E)-N-(4-(3-CHLORO-4-(PYRIDIN-2-YL-METHOXY)PHENYLAMINO)-3-CYANO-7-(TETRAHYDROFURAN-3-YL-OXY)QUINOLIN-6-YL)-4-(DIETHYLAMINO)-BUT-2-ENAMIDE] as the compound, how does the IC50 [1] read?
**A.** 2200 nM

**Q.** And the IC50 [2]?
**A.** 4.9 nM

**Q.** What about the inhibition at 1 µM [2] of the same compound?
**A.** 82%

**Q.** And the IC50 [3]?
**A.** 3800 nM

**Q.** What about the IC50 [4] of the same compound?
**A.** 6.6 nM

**Q.** Which IC50 [1] does the source give for `CN(C)C/C=C/C(=O)Nc1cc2c(Nc3ccc(F)c(Cl)c3)c(C#N)cnc2cc1OC1CCOC1` (stereo not shown) [Example 4, (E)-N-(4-(3-CHLORO-4-FLUOROPHENYLAMINO)-3-CYANO-7-(TETRAHYDROFURAN-3-YL-OXY)QUINOLIN-6-YL)-4-(DIMETHYLAMINO)-BUT-2-ENAMIDE] here?
**A.** 8000 nM

**Q.** And the IC50 [2]?
**A.** 140 nM

**Q.** What about the “Growth Inhibition Ratio (%)” value [2] of the same compound?
**A.** 79%

**Q.** What about the IC50 [3] of the same compound?
**A.** 1250 nM

**Q.** And the IC50 [4]?
**A.** 79 nM

Source: patent publication US9187458B2, “Cyanoquinoline derivatives” (Tianjin Hemay Bio-Tech Co., LTD., priority 2010, dated 2015)
